Results: patent US20150160197A1, “System and Method for Analyzing Samples Labeled with 5, 10, 15, 20 Tetrakis (4-Carboxyphenyl) Porphine (TCPP)” (bioAffinity Technologies, Inc., priority 2009, published 2015)
Entries after “also recorded” stand apart in the source; their conditions may differ.

Assays:
[1] = tested on: cells of lung sputum sample; test: Fluorescence spectral imaging (LCTF/CCD) of TCPP-labeled lung sputum cells on slides; format: cell-based, human; conditions: fixed sputum cells on slide, images separated by spectral emission (530 nm vs 660 nm layers)
Source text: According to one embodiment of the present invention, a biological specimen, for example a sputum sample is processed using a thin prep protocol onto a microscope slide. […] Minimizing corrosive effects to the plasma membrane is important as the TCPP is shown to localize on the plasma membrane of the cell surface. The cells are processed to separate the cells from the mucous and cell fragments. Each prepared slide contains a monolayer of the sputum cells. After preparing the slides, the labeling reagent TCPP is dissolved in concentrations between 0.05 ug/ml-4.0 ug/ml in an aqueous alcohol containing between 50% and 90% isopropanol alcohol solution. […]
To gather our data an image capture system having a detector capable of quantifying emission of photons from a TCPP labeled cell across light spectrum from about 350 nm to about 800 nm was employed according to one embodiment of the present invention. […]
Referring now to FIG. 1 is a cell labeled or stained with TCPP according to one embodiment of the present invention. […] The autofluorescence of the cells is detected in the green channel 560 +/−30nm and the fluorescence of the TCPP labeling compound on the cell is detected in the red channel 660 +/−30 nm. […] By tuning the LCTF to different frequencies during imaging, the system permits information to be gathered and analyzed over a broad spectrum. […]

neoplastic cells = conditions: cell sample incubated 6-24 hours with 200 μg/ml TCPP; cited from earlier work

## O=C(O)c1ccc(-c2c3nc(c(-c4ccc(C(=O)O)cc4)c4ccc([nH]4)c(-c4ccc(C(=O)O)cc4)c4nc(c(-c5ccc(C(=O)O)cc5)c5ccc2[nH]5)C=C4)C=C3)cc1 [TCPP, 5, 10, 15, 20 tetrakis (4-carboxyphenyl) porphine]
[1]
  location of TCPP in cell structures: emitted exclusively from the plasma membrane; also recorded: adheres only to surface features and does not migrate into internal cell structures
Neoplastic cells
  location of TCPP in cells after incubation: entered cells and bound to the perinuclear membrane and mitochondria of neoplastic cells
